Calls of active or inactive are those of the source. No cut-off for these calls is given here.
Experiments:
[1] = molecular target: T1, Vitamin D3 receptor (Homo sapiens) (UniProt P11473); test: Binding affinity at VDR (unknown origin) assessed as relative VDR-probe inhibition at 1 uM by fluorescence polarization assay relative to 1,25(OH)2D3
T1 sequence (whole entry): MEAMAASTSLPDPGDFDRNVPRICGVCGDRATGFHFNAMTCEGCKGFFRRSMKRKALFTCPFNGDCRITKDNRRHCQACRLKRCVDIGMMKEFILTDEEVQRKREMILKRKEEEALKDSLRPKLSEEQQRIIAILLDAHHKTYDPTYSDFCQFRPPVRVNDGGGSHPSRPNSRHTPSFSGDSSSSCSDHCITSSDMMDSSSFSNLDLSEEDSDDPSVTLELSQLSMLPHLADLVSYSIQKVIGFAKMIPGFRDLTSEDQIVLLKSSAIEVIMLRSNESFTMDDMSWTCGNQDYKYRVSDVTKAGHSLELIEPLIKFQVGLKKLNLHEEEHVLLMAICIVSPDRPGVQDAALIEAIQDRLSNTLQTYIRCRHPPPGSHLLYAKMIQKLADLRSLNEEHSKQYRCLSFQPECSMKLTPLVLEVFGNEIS

MCF7 [2] = test: Antiproliferative activity against human MCF7 cells after 24 hrs by MTT assay; format: functional, cell-based; conditions: MCF7, 24 h
L02 = test: Cytotoxicity against human LO2 cells assessed as reduction in cell viability after 24 hrs by MTT assay; format: cell-based; conditions: L02, 24 h
MCF7 [3] = test: Induction of apoptosis in human MCF7 cells assessed as increase in p21 expression at 0.5 uM after 24 hrs by qPCR analysis; format: functional, cell-based
MCF7 [4] = test: Induction of apoptosis in human MCF7 cells assessed as increase in p21 level at 0.5 uM after 24 hrs by Western blot analysis; format: functional, cell-based
MCF7 [5] = test: Induction of apoptosis in human MCF7 cells assessed as reduction in Bcl2 expression at 0.5 uM after 24 hrs by qPCR analysis; format: functional, cell-based
MCF7 [6] = test: Induction of apoptosis in human MCF7 cells assessed as reduction in Bcl2 level at 0.5 uM after 24 hrs by Western blot analysis; format: functional, cell-based
MCF7 [7] = test: Induction of apoptosis in human MCF7 cells assessed as increase in Bax expression at 0.5 uM after 24 hrs by qPCR analysis; format: functional, cell-based
MCF7 [8] = test: Induction of apoptosis in human MCF7 cells assessed as increase in Bax level at 0.5 uM after 24 hrs by Western blot analysis; format: functional, cell-based
MCF7 [9] = test: Induction of apoptosis in human MCF7 cells at 0.5 uM after 48 hrs by Annexin V-FITC/propidium iodide staining-based flow cytometric analysis; format: functional, cell-based
MCF7 [10] = test: Induction of apoptosis in human MCF7 cells assessed as early apoptotic cells at 1 uM after 48 hrs by Annexin V-FITC/propidium iodide staining-based flow cytometric analysis (reference value: 3.80%); format: functional
MCF7 [11] = test: Induction of apoptosis in human MCF7 cells assessed as late apoptotic cells at 1 uM after 48 hrs by Annexin V-FITC/propidium iodide staining-based flow cytometric analysis (reference value: 1.61%); format: functional
MCF7 [12] = test: Induction of apoptosis in human MCF7 cells assessed as necrotic cells at 1 uM after 48 hrs by Annexin V-FITC/propidium iodide staining-based flow cytometric analysis (reference value: 0.29%); format: functional
MCF7 [13] = test: Induction of apoptosis in human MCF7 cells assessed as viable cells at 1 uM after 48 hrs by Annexin V-FITC/propidium iodide staining-based flow cytometric analysis (reference value: 94.3%); format: functional; conditions: MCF7, 48 h, read-out: Activity
MCF7 [14] = test: Cell cycle arrest in human MCF7 cells assessed as accumulation at G0/G1 phase at 1 uM after 24 hrs by propidium iodide staining based flow cytometric analysis (reference value: 56.64%); format: functional
MCF7 [15] = test: Cell cycle arrest in human MCF7 cells assessed as accumulation at G2/M phase at 1 uM after 24 hrs by propidium iodide staining based flow cytometric analysis (reference value: 12.04%); format: functional
MCF7 [16] = test: Cell cycle arrest in human MCF7 cells assessed as accumulation at S phase at 1 uM after 24 hrs by propidium iodide staining based flow cytometric analysis (reference value: 31.32%); format: functional
MCF7 [17] = test: Antitumor activity against human MCF7 cells xenografted in BALB/C nude mouse assessed as reduction in tumor volume at 0.5 ug/kg, ip administered 3 times per week; format: functional, organism-based
Mus musculus = test: Hypercalcemic effect in BALB/C nude mouse xenografted with human MCF7 cells at 0.5 ug/kg, ip administered 3 times per week measured after 15 days; format: ADME, organism-based; conditions: in vivo, 0.0005 mg/kg, 360 h

Molecule `CCN(CC)CCNC(=O)c1cc(C(CC)(CC)c2ccc(C#CC(C)(C)O)c(C)c2)cn1CC` has an inhibition [1] of 56.3%.

For `CCN(CC)CCNC(=O)c1cc(C(CC)(CC)c2ccc(C#CC3(O)CCC3)c(C)c2)cn1CC`, the inhibition [1] was 49.3%, the IC50 (MCF7 [2]) was 1.28 µM and the IC50 (L02) was greater than 50 µM. The Activity (MCF7 [3]) was “Active”, the Activity (MCF7 [4]) was “Active” and the Activity (MCF7 [5]) was “Active”. The Activity (MCF7 [6]) was “Active”, the Activity (MCF7 [7]) was “Active” and the Activity (MCF7 [8]) was “Active”.

In the case of `CCCC(O)(C#Cc1ccc(C(CC)(CC)c2cc(C(=O)NCCN(CC)CC)n(CC)c2)cc1C)CCC`, the inhibition [1] is reported as 51.1%, the Activity (MCF7 [3]) is reported as “Active” and the Activity (MCF7 [4]) is reported as “Active”. The Activity (MCF7 [5]) was “Active”, the Activity (MCF7 [6]) was “Active” and the Activity (MCF7 [7]) was “Active”. The Activity (MCF7 [8]) was “Active”.

Work on `CCCC(O)(C#Cc1ccc(C(CC)(CC)c2ccc(C(=O)NCCN(CC)CC)n2CC)cc1C)CCC` yielded an inhibition [1] of 52.1%.

Work on `CCN(CC)CCNC(=O)c1cc(C(CC)(CC)c2ccc(C#CC(C)(O)CC)c(C)c2)cn1CC` (configuration not stated) yielded an inhibition [1] of 59.2%.

With `CCN(CC)CCNC(=O)c1ccc(C(CC)(CC)c2ccc(C#CC(C)(O)CC)c(C)c2)n1CC` (configuration not stated) the inhibition [1] was 63.4%, the Activity (MCF7 [9]) was “Active” and the Activity (MCF7 [3]) was “Active”. The Activity (MCF7 [4]) was “Active”, the Activity (MCF7 [5]) was “Active” and the Activity (MCF7 [6]) was “Active”. For the same molecule, the Activity (MCF7 [7]) was “Active” and the Activity (MCF7 [8]) was “Active”.

In the case of `C=C1/C(=C\C=C2/CCC[C@]3(C)[C@@H]([C@H](C)CCCC(C)(C)O)CC[C@@H]23)C[C@@H](O)C[C@@H]1O` [CALCITRIOL], the Activity (MCF7 [10]) is reported as 14%, the Activity (MCF7 [11]) is reported as 3.88% and the Activity (MCF7 [12]) is reported as 0.4%. It also gave a viability at 1 µM (MCF7 [13]) of 81.8%, an Activity (MCF7 [14]) of 70.33% and an Activity (MCF7 [15]) of 4.11%. For the same molecule, the Activity (MCF7 [16]) was 25.56%, the Activity (MCF7 [17]) was “inactive” and the Activity (Mus musculus) was “Toxic”.

Work on `CCN(CC)CCNC(=O)c1cc(C(CC)(CC)c2ccc(C#CC3(O)CCCCC3)c(C)c2)cn1CC` yielded an inhibition [1] of 44.2% and an IC50 (MCF7 [2]) of 3.07 µM.

With `CCN(CC)CCNC(=O)c1ccc(C(CC)(CC)c2ccc(C#CC(C)(C)O)c(C)c2)n1CC` the inhibition [1] was 60.2%, the Activity (MCF7 [3]) was “Active” and the Activity (MCF7 [4]) was “Active”. For the same molecule, the Activity (MCF7 [5]) was “Active”, the Activity (MCF7 [6]) was “Active” and the Activity (MCF7 [7]) was “Active”. For the same molecule, the Activity (MCF7 [8]) was “Active”.

For `C=C1/C(=C\C=C2/CCC[C@]3(C)[C@@H]([C@H](C)/C=C/[C@@H](O)C4CC4)CC[C@@H]23)C[C@@H](O)C[C@@H]1O` [CALCIPOTRIENE], the Activity (MCF7 [10]) was 15.1%, the Activity (MCF7 [11]) was 3.77% and the Activity (MCF7 [12]) was 0.31%. The viability at 1 µM (MCF7 [13]) was 80.8%, the Activity (MCF7 [14]) was 63% and the Activity (MCF7 [15]) was 12.55%. The Activity (MCF7 [16]) was 24.45%.

Reference: ChEMBL document CHEMBL4411295, “Discovery of novel nonsteroidal VDR agonists with novel diarylmethane skeleton for the treatment of breast cancer” (Eur J Med Chem, 2019)
